Assay results from publication PMC7804430, “Synthesis and tumour cell uptake studies of gadolinium(III)–phosphonium complexes” (Scientific Reports, 2021).
pIC50: −log10 of the molar value.

Experiments:
[1] = literature values for HPLC calibration curve; cited from earlier work
HF1 tumour cell line = tested on: HF1 tumour cell line; design: method as in PMID 19825958, PMID 15388578; conditions: cited from earlier work
[2] = Competition (challenge) stability assay with xylenol orange at acidic pH; assay type: physicochemical; conditions: absorbance shift 433 to 573 nm
Method: In this work, the relative stability of complexes 6 and 7 were compared to the previously-reported archetypal Gd(III)-DO3A triphenylphosphonium complex (11, shown in Fig. 2) at acidic pH by means of a competition (challenge) assay using the lanthanoid(III) ion indicator xylenol orange[32]. These assays were performed under mildly acidic conditions to ensure the phenolic hydroxyl was protonated prior to chelation.
Solution stability assays were performed using the method described by Barge et al.[32]. Initially an acetate buffer solution (50 mM) was prepared, a portion of which was adjusted to pH 5.8 using NaOH, while other portions were adjusted to pH 5.0, 4.0, or 3.0 using glacial acetic acid. Xylenol orange (5.81 mg) was dissolved in the pH 5.8 acetate buffer (48.4 mL) to give a 10 × concentrated stock solution. These solutions were treated as light sensitive, work was conducted in minimal light and solutions were covered in foil.
25 mM stock solutions of each GdCl3, […] 11 were prepared in the various buffer solutions. […] The plates were agitated in a plate reader and allowed to equilibrate for 24 h. […] The plates were again agitated in a plate reader and allowed to equilibrate for 15 min at RT. The absorbance values were then determined at both 573 nm and 433 nm by means of a BMG LABTECH POLARstar Omega, UV Spectrometer, and the data plotted and processed using Graphpad Prism 7.

c1ccc(N(c2ccccc2)c2ccccc2)cc1 [triphenylamine]
logD7.4 of calibration standards [1]: 5.74

Motexafin-Gd [MGd]
pIC50 (HF1 tumour cell line; HF1 tumour cell line, read-out: Concentration resulting in 50% cell arrest): > 4.00 | Concentration exhibiting significant cytotoxicity (HF1 tumour cell line; in the absence of any X-ray irradiation): ca. 50 μM

Nc1ccccc1 [aniline]
logD7.4 of calibration standards [1]: 0.90

[Cl][Gd]([Cl])[Cl] [GdCl3]
% Gd^3+ retention ([2]; pH 5.0, 24 h): 0% | % Gd^3+ retention ([2]; pH 5.8, 24 h): 0%
